In publication PMC8027391, “Fangchinoline suppresses conjunctival melanoma by directly binding FUBP2 and inhibiting the homologous recombination pathway” (Cell Death & Disease, 2021):
Where a name gives a salt, the structure may show the parent alone. Read-outs that look alike come from different tables or passages of the source.

Key:
CM-AS16 = experiment: cells; set-up: CCK-8 anti-proliferation assay in conjunctival melanoma cell lines
Method: (§1) The anti-proliferative activity of our in-house drugs against CM-AS16 cells was assessed using the Cell Counting Kit-8 (CCK-8) assay at a final concentration of 10 μM (Fig. 1A). […] These analogues were Chinese herbal monomers harbouring the same bisbenzylisoquinoline core. […] Fangchinoline harbours an exposed hydroxy group, which is suitable for synthesizing functionalized probes and subsequent target identification. […] Next, we assessed the anti-proliferative activity of fangchinoline against three other CM cell lines obtained from patients with a typical NRAS (CRMM2) or BRAF mutation (CRMM1 and CM2005.1)[26],[27]. […] To determine whether fangchinoline could suppress CM properties in vivo, an immunodeficient NCG mice xenograft model was created by subcutaneous inoculation of CM-AS16 cells. NCG mice comes from knocking out the Prkdc and IL2rg genes in NOD/ShiltJ mice through Crispr Cas9 technology. […] The average tumour volume of the control group was 204 mm^3, which was higher than that of the treated groups (50 mg/kg/day fangchinoline, tumour volume: […] CRMM1, CRMM2 and CM2005.1 were generously provided by Professor Martine J. Jager (Leiden University Medical Center, Leiden, The Netherlands)[47] and CM-AS16 was provided by Professor Renbin Jia (Shanghai Ninth People’s Hospital, Shanghai, China). A375 and HEK293T were obtained from American Type Culture Collection. CM-AS16 and CM2005.1 were maintained in 1640H medium, CRMM1 and CRMM2 were maintained in F12K medium, A375 and HEK293T were maintained in DMEM medium, and MRC5 was maintained in MEM medium. All mediums were supplemented with 10% FBS. Cells were cultured at 37 °C in an incubator, in a humidified atmosphere with 5% CO2, periodically checked for mycoplasma-free and validated by short tandem repeats (STR) DNA analysis at BGI Tech Solutions (Beijing Liuhe) Co., Limited.

CM2005.1 = experiment: cells; set-up: CCK-8 anti-proliferation assay in conjunctival melanoma cell lines
Method: as §1

CRMM1 = experiment: cells; set-up: CCK-8 anti-proliferation assay in conjunctival melanoma cell lines
Method: as §1

CRMM2 = experiment: cells; set-up: CCK-8 anti-proliferation assay in conjunctival melanoma cell lines
Method: as §1

in vitro = experiment: in vitro; set-up: CCK-8 growth inhibition of MRC5 normal fibroblasts (counter-screen); settings: human, mrc5 cells
Method: as §1

[1] = molecular target: T1, far upstream element binding protein 2 (FUBP2) (Homo sapiens, UniProt Q92945); experiment: microscale thermophoresis (MST, Monolith NT.[…]) with EGFP-labelled FUBP2 from transfected HEK293T cells
T1 construct: gene KHSRP; FUBP2 labelled with enhanced green fluorescent protein, obtained from HEK293T cells transfected with plasmids
T1 sequence (Q92945 2-711): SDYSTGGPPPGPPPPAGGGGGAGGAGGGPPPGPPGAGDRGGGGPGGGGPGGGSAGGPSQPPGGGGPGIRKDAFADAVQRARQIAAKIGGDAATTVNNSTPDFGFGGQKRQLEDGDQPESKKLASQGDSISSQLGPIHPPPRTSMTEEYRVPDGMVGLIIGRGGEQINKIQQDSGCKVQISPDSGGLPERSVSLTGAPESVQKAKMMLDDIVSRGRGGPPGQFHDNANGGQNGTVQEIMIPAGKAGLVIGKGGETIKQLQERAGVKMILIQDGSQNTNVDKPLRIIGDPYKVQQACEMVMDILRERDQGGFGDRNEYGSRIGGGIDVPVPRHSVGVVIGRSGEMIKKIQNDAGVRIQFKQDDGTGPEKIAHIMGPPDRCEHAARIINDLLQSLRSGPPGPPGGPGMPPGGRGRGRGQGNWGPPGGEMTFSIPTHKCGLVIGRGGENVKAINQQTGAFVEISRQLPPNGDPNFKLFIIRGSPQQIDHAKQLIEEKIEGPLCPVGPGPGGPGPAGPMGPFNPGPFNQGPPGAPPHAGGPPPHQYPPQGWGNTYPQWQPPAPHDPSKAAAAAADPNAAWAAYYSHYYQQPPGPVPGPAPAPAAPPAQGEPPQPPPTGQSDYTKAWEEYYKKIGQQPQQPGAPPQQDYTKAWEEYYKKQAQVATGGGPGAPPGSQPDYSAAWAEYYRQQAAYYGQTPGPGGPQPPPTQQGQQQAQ

[2] = CM-AS16; read-out: IC50 (μM) CM-AS16
[3] = CM2005.1; read-out: IC50 (μM) CM2005.1
[4] = Homo sapiens, CRMM-1; read-out: IC50 (μM) CRMM1
[5] = Homo sapiens, CRMM-2; read-out: IC50 (μM) CRMM2

Structure (SMILES) | IC50 (CM-AS16; [2]) | IC50 (CM2005.1; [3]) | IC50 (CRMM1; [4]) | IC50 (CRMM2; [5]) | CC50 (in vitro; read-out: IC50 (μM) MRC5) | IC50 (CM-AS16; CM-AS16, read-out: IC50 (μM) CM-AS16) | IC50 (CM2005.1; CM2005.1, read-out: IC50 (μM) CM2005.1) | IC50 (CRMM1; Homo sapiens, CRMM-1, read-out: IC50 (μM) CRMM1) | IC50 (CRMM2; Homo sapiens, CRMM-2, read-out: IC50 (μM) CRMM2) | CC50 (in vitro) | Kd [1]
COc1ccc2cc1Oc1ccc(cc1)C[C@H]1c3c(cc4c(c3Oc3cc5c(cc3OC)CCN(C)[C@@H]5C2)OCO4)CCN1C [Cepharanthine] | 1.63 ± 0.24 µM | 7.44 ± 0.08 µM | 4.69 ± 0.17 µM | 0.792 ± 0.013 µM | 8.44 ± 0.54 µM |  |  |  |  |  | 
COc1cc2c3cc1Oc1c(OC)c(OC)cc4c1[C@@H](Cc1cccc(c1)Oc1ccc(c(O)c1)C[C@@H]3N(C)CC2)N(C)CC4 [Berbamine Hydrochloride] |  |  |  |  |  | 8.46 ± 0.22 µM | 20.2 ± 0.49 µM | 8.16 ± 0.13 µM | 4.14 ± 0.5 µM | 9.03 ± 0.22 µM | 
COc1ccc2cc1Oc1ccc(cc1)C[C@H]1c3cc(c(OC)cc3CCN1C)Oc1c(O)c(OC)cc3c1[C@H](C2)N(C)CC3 [fangchinoline] | 5.67 ± 0.17 µM | 7.4 ± 0.45 µM | 2.68 ± 0.07 µM | 3.6 ± 0.05 µM | 4.35 ± 0.11 µM |  |  |  |  |  | 246 µM
COc1ccc2cc1Oc1ccc(cc1)C[C@H]1c3cc(c(OC)cc3CCN1C)Oc1c(OC)c(OC)cc3c1[C@H](C2)N(C)CC3 [Tetrandrine] | 3.2 ± 0.06 µM | 9.7 ± 0.07 µM | 4.77 ± 0.24 µM | 2.16 ± 0.02 µM | 5.75 ± 0.11 µM |  |  |  |  |  | 
Cn1cnc2c(F)c(Nc3ccc(Br)cc3F)c(C(=O)NOCCO)cc21 [MEK162] | 0.0077 ± 0.0016 µM | 0.068 ± 0.008 µM | > 50 µM | 0.0136 ± 0.0006 µM | 6.32 ± 0.16 µM |  |  |  |  |  | 
